How the values were obtained:
Gal-1 [1] = molecular target: T1, Gal-1 (Homo sapiens, UniProt P09382); assay: Competition pull-down with lactose; assay type: binding; details: H14 library; lactose 10 mM; read-out: Surface mapping KD (apparent), competition
T1 construct: made in house; host or cells: E. coli BL21(DE3)
Protocol: Interactions between the H14 helical LSMs and the targets were abundant, but safe recognition of the native PPI interfaces on the targets is a criterion of druggability. To gain insight into the ability of the LSMs to detect orthosteric spots, we carried out pull-down assays in the presence of the native ligands (Table 2) of the targets (Fig. 5). For highlighting the effect of the competitor on the binding fingerprints, KD ratios and the LSM replacement percentages were calculated and are represented as heat maps (see ESI, Fig. S7 ^†). […] This could be explained by the glycan selective native recognition domain of the protein. We note that the replacement pattern for a single probe can, in theory, be complex. […] Moreover, a single probe can bind to both orthosteric and non-orthosteric spots, which limits overall displacement levels. To avoid overlooking interesting orthosteric weak binders, direct replacement levels were assessed (see ESI, Fig. S7 ^†).
Pull-down assay and data analysis
Pull-down assay. LSM sublibraries were screened separately as previously described.(2) Experiments were performed in the following buffers: (i) 20 mM pH 7.4 HEPES, 150 mM NaCl, 5 mM CaCl2 for CaM; (ii) 50 mM pH 7.4 HEPES, 150 mM NaCl, 1 mM TCEP, 1 mM CaCl2 for S100 proteins; (iii) 20 mM pH 7.4 HEPES, 150 mM NaCl, 1 mM TCEP for Gal-1 and (iv) 20 mM pH 7.4 HEPES, 150 mM NaCl for RecQ-WH. Assays were performed in paper filter spin cups (Thermo Scientific) with sample volumes of 100 µl. Hexahistidine-tagged proteins were immobilized on previously washed Co-NTA resin (TALON, Takara Bio USA, Inc., Mountain View, CA) in 64 µM final concentration. LSM sublibrary was added, in which each of the 64 library members were used at a concentration of 1 µM. Samples were incubated at room temperature for 30 min with shaking at 100 rpm. Then, samples were centrifuged at 1000 rpm for 2 min and washed with 100 µl pull-down buffer to remove unbound compounds.
The control experiments were performed using the same compounds and the resin but without the immobilized protein. In case of competitive assays, competitor peptides were added to LSM sublibrary samples in 200 µM final concentration. In the case of Gal-1, lactose (competitor) was used in a concentration of 10 mM. Experiments were performed at least twice. Mean […]
LC-MS methods and parameters. HPLC/ESI-MS analysis was used to characterize the samples from the pull-down assay. LC-MS analysis was performed with a Thermo Scientific Dionex UltiMate 3000 HPLC system interfaced to an LTQ ion trap mass spectrometer (Thermo Electron Corp., San Jose, CA, USA). Samples were injected onto an Aeris Widepore XB-C18 (250 x 4.6 mm) analytical HPLC column using gradient elution 5-80 % solution B during 25 minutes. For pull-down samples, eluent composition was 0.1% acetic acid in distilled water (Solution A) and 0.1% acetic acid in acetonitrile (solution B). Mass spectra were acquired in full scan mode from 200 to 2000 m/z range. For overlapping peaks, selective reaction monitoring (SRM) was […]
MS data analysis. Thermo Xcalibur 2.2 software was used for peak identification and integration. The majority of the foldameric fragments could be resolved independently via HPLC-MS/MS measurements based on molecular weight, MS fragmentation pattern and retention time. Peaks of some foldamers with β3-hIle or β3-hLeu in position R2 could not be resolved, these were integrated and averaged. In the processing method, each sample component was associated to a chromatographic peak based on previously identified mass (m/z) and retention time (ref (2) and Table S7-10). Using ICIS peak detection algorithm, the general detection and integration criteria were: smoothing points: 5, baseline window: 80, area noise factor: 5, peak noise factor: 10. Using these processing setups, all raw data files were reprocessed together and analyzed. Errors in peak identification during the automatic processing were corrected manually.
Calculation of the discussed parameters […]

CaM = molecular target: T2, CaM (Bos taurus, UniProt P62157); assay: Pull-down assay with immobilized protein and LSM libraries; assay type: binding, bovine; details: H12 library; 1:2 stoichiometry assumed; read-out: Surface mapping KD (apparent)
T2 construct: made in house; host or cells: E. coli BL21 (DE3)
Outline: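 His-tagged protein immobilized on Co-NTA resin, equilibrated 30 min at room temperature with LSM sublibraries (64 members, […]), equimolar protein to total probe. CaM buffer: 20 mM HEPES pH 7.4, 150 mM NaCl, 5 mM CaCl2. Bound fractions from HPLC-MS loss of unbound probe versus protein-free resin control; Kd derived.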

Gal-1 [2] = molecular target: T1, Gal-1; assay: as above; assay type: binding; details: H12 library; 1:1 binding assumed; read-out: Surface mapping KD (apparent)
Outline: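 His-tagged protein immobilized on Co-NTA resin (64 µM) in 20 mM HEPES pH 7.4, 150 mM NaCl, equilibrated 30 min at room temperature with foldamer LSM sublibraries at equimolar total concentration. Unbound fractions quantified by HPLC-MS versus protein-free resin control; apparent KD assumes 1:1 binding.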

S100A4 = molecular target: T3, S100A4 (Homo sapiens, UniProt P26447); assay: as above; assay type: binding; details: H12 library; 1:1 binding assumed; read-out: Surface mapping KD (apparent)
T3 construct: made in house; host or cells: Escherichia coli BL21(DE3)
T3 sequence (P26447 whole entry): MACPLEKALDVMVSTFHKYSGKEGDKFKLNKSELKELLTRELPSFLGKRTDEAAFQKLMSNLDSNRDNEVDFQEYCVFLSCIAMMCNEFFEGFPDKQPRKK
Outline: (§1)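 Buffers were HEPES pH 7.4 with 150 mM NaCl, plus 1 mM TCEP and 1 mM CaCl2 (50 mM HEPES) for S100A4 and S100B, 1 mM TCEP for Gal-1, and no additive for RecQ-WH. Immobilized protein at 64 µM was equilibrated 30 min with the LSM sublibrary, and unbound probes were measured by LC-MS.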

S100B = molecular target: T4, S100B (Homo sapiens, UniProt P04271); assay: as above; assay type: binding; details: H12 library; 1:1 binding assumed; read-out: Surface mapping KD (apparent)
T4 construct: made in house; host or cells: Escherichia coli BL21(DE3)
T4 sequence (P04271 1-92): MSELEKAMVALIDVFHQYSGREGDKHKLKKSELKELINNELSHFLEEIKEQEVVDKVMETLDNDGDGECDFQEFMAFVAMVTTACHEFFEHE
Outline: as §1

T1 sequence (P09382 whole entry): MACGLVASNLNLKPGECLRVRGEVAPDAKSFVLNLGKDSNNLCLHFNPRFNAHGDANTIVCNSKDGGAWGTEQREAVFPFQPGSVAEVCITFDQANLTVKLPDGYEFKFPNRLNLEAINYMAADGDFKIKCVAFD

| SMILES | Kd (Gal-1 [1]) [µM] | Kd (CaM) [µM] | Kd (Gal-1 [2]) [µM] | Kd (S100A4) [µM] | Kd (S100B) [µM] |
| --- | --- | --- | --- | --- | --- |
| NC(=O)C[C@@H](CC(=O)N[C@H]1CCCC[C@@H]1C(N)=O)NC(=O)[C@H]1CCCC[C@@H]1NC(=O)[C@H]1CCCC[C@@H]1NC(=O)C[C@H](CCC(=O)O)NC(=O)[C@H]1CCCC[C@@H]1N [H14 EN] | 453 |  |  |  |  |
| NC(=O)[C@H]1CCCC[C@@H]1NC(=O)C[C@H](CCC(=O)O)NC(=O)[C@H]1CCCC[C@@H]1NC(=O)[C@H]1CCCC[C@@H]1NC(=O)C[C@H](CC(=O)O)NC(=O)[C@H]1CCCC[C@@H]1N [H14 DE] | 318 |  |  |  |  |
| C[C@@H](O)[C@@H](CC(=O)N[C@H]1CCCC[C@@H]1C(N)=O)NC(=O)[C@H]1CCCC[C@@H]1NC(=O)[C@H]1CCCC[C@@H]1NC(=O)C[C@H](CC(=O)O)NC(=O)[C@H]1CCCC[C@@H]1N [H14 DT] | 282 |  |  |  |  |
| NC(=O)[C@H]1CCCC[C@@H]1NC(=O)C[C@H](CO)NC(=O)[C@H]1CCCC[C@@H]1NC(=O)[C@H]1CCCC[C@@H]1NC(=O)C[C@H](CC(=O)O)NC(=O)[C@H]1CCCC[C@@H]1N [H14 DS] | 415 |  |  |  |  |
| NC(=O)[C@H]1CCCC[C@@H]1NC(=O)C[C@H](CC(=O)O)NC(=O)[C@H]1CCCC[C@@H]1NC(=O)[C@H]1CCCC[C@@H]1NC(=O)C[C@H](CCC(=O)O)NC(=O)[C@H]1CCCC[C@@H]1N [H14 ED] | 318 |  |  |  |  |
| CC[C@H](C)[C@@H](CC(=O)N[C@H]1CCC[C@@H]1C(=O)N[C@H]1CCC[C@@H]1C(N)=O)NC(=O)[C@H]1CCC[C@@H]1NC(=O)[C@H]1CCC[C@@H]1NC(=O)C[C@H](CC(C)C)NC(=O)[C@H]1CCC[C@@H]1NC(=O)[C@H]1CCC[C@@H]1N [H12 LI] |  | 67 | 415 | 143 | 37 |
| NC(=O)[C@H]1CCCC[C@@H]1NC(=O)C[C@H](CCC(=O)O)NC(=O)[C@H]1CCCC[C@@H]1NC(=O)[C@H]1CCCC[C@@H]1NC(=O)C[C@H](CCC(=O)O)NC(=O)[C@H]1CCCC[C@@H]1N [H14 EE] | 353 |  |  |  |  |
| CC[C@H](C)[C@@H](CC(=O)N[C@H]1CCC[C@@H]1C(=O)N[C@H]1CCC[C@@H]1C(=O)N[C@H](CC(=O)N[C@H]1CCC[C@@H]1C(=O)N[C@H]1CCC[C@@H]1C(N)=O)Cc1ccccc1)NC(=O)[C@H]1CCC[C@@H]1NC(=O)[C@H]1CCC[C@@H]1N [H12 IF] |  | 28 | 376 | 32 | 22 |
| CC(C)[C@@H](CC(=O)N[C@H]1CCCC[C@@H]1C(N)=O)NC(=O)[C@H]1CCCC[C@@H]1NC(=O)[C@H]1CCCC[C@@H]1NC(=O)C[C@H](CC(=O)O)NC(=O)[C@H]1CCCC[C@@H]1N [H14 DV] | 316 |  |  |  |  |
| CC[C@H](C)[C@@H](CC(=O)N[C@H]1CCC[C@@H]1C(=O)N[C@H]1CCC[C@@H]1C(N)=O)NC(=O)[C@H]1CCC[C@@H]1NC(=O)[C@H]1CCC[C@@H]1NC(=O)C[C@H](Cc1c[nH]c2ccccc12)NC(=O)[C@H]1CCC[C@@H]1NC(=O)[C@H]1CCC[C@@H]1N [H12 WI] |  | 134 | 174 | 164 | 18 |
| CC(C)[C@@H](CC(=O)N[C@H]1CCC[C@@H]1C(=O)N[C@H]1CCC[C@@H]1C(=O)N[C@H](CC(=O)N[C@H]1CCC[C@@H]1C(=O)N[C@H]1CCC[C@@H]1C(N)=O)Cc1ccc(O)cc1)NC(=O)[C@H]1CCC[C@@H]1NC(=O)[C@H]1CCC[C@@H]1N [H12 VY] |  | 247 | 413 | 392 | 210 |

The next lines start with the values.

| Kd (Gal-1 [1]) [µM] | Kd (CaM) [µM] | Kd (Gal-1 [2]) [µM] | Kd (S100A4) [µM] | Kd (S100B) [µM] | SMILES |
| --- | --- | --- | --- | --- | --- |
|  | 51 | 161 | 456 | 39 | NCCCC[C@@H](CC(=O)N[C@H]1CCC[C@@H]1C(=O)N[C@H]1CCC[C@@H]1C(=O)N[C@H](CC(=O)N[C@H]1CCC[C@@H]1C(=O)N[C@H]1CCC[C@@H]1C(N)=O)Cc1c[nH]c2ccccc12)NC(=O)[C@H]1CCC[C@@H]1NC(=O)[C@H]1CCC[C@@H]1N [H12 KW] |
| 443 |  |  |  |  | NC(=O)CC[C@@H](CC(=O)N[C@H]1CCCC[C@@H]1C(N)=O)NC(=O)[C@H]1CCCC[C@@H]1NC(=O)[C@H]1CCCC[C@@H]1NC(=O)C[C@H](CCC(=O)O)NC(=O)[C@H]1CCCC[C@@H]1N [H14 EQ] |
|  | 252 | 194 | 245 | 56 | CC[C@H](C)[C@@H](CC(=O)N[C@H]1CCC[C@@H]1C(=O)N[C@H]1CCC[C@@H]1C(N)=O)NC(=O)[C@H]1CCC[C@@H]1NC(=O)[C@H]1CCC[C@@H]1NC(=O)C[C@H](CCCNC(=N)N)NC(=O)[C@H]1CCC[C@@H]1NC(=O)[C@H]1CCC[C@@H]1N [H12 RI] |
| 282 |  |  |  |  | NC(=O)[C@H]1CCCC[C@@H]1NC(=O)C[C@H](CO)NC(=O)[C@H]1CCCC[C@@H]1NC(=O)[C@H]1CCCC[C@@H]1NC(=O)C[C@H](CCC(=O)O)NC(=O)[C@H]1CCCC[C@@H]1N [H14 ES] |
|  | 67 | 395 | 79 | 25 | CC[C@H](C)[C@@H](CC(=O)N[C@H]1CCC[C@@H]1C(=O)N[C@H]1CCC[C@@H]1C(=O)N[C@H](CC(=O)N[C@H]1CCC[C@@H]1C(=O)N[C@H]1CCC[C@@H]1C(N)=O)CC(C)C)NC(=O)[C@H]1CCC[C@@H]1NC(=O)[C@H]1CCC[C@@H]1N [H12 IL] |
|  | 128 | 388 | 95 | 45 | CC(C)[C@@H](CC(=O)N[C@H]1CCC[C@@H]1C(=O)N[C@H]1CCC[C@@H]1C(=O)N[C@H](CC(=O)N[C@H]1CCC[C@@H]1C(=O)N[C@H]1CCC[C@@H]1C(N)=O)Cc1ccccc1)NC(=O)[C@H]1CCC[C@@H]1NC(=O)[C@H]1CCC[C@@H]1N [H12 VF] |
|  | 9 | 117 | 135 | 7 | NC(=O)[C@H]1CCC[C@@H]1NC(=O)[C@H]1CCC[C@@H]1NC(=O)C[C@H](Cc1ccccc1)NC(=O)[C@H]1CCC[C@@H]1NC(=O)[C@H]1CCC[C@@H]1NC(=O)C[C@H](Cc1c[nH]c2ccccc12)NC(=O)[C@H]1CCC[C@@H]1NC(=O)[C@H]1CCC[C@@H]1N [H12 WF] |
|  | 123 | 181 | 210 | 89 | N=C(N)NCCC[C@@H](CC(=O)N[C@H]1CCC[C@@H]1C(=O)N[C@H]1CCC[C@@H]1C(N)=O)NC(=O)[C@H]1CCC[C@@H]1NC(=O)[C@H]1CCC[C@@H]1NC(=O)C[C@H](CCCNC(=N)N)NC(=O)[C@H]1CCC[C@@H]1NC(=O)[C@H]1CCC[C@@H]1N [H12 RR] |
